Results published in patent publication US7521423B2, “Exendin pharmaceutical compositions” (Amylin Pharmaceuticals, Inc., priority 1996, dated 2009).
Entries after “also recorded” stand apart in the source; their conditions may differ. No end group written: not given here.

How the values were obtained:
gastric emptying [1] = assay: Gastric emptying in conscious rats, retention of phenol red methyl cellulose gel 20 min after gavage (Example 1); assay type: in vivo, Male Harlan Sprague Dawley (HSD) rats; conditions: for % remaining (percent of gastric contents remaining 20 minutes after gavage): normal rats; for ED50 of inhibition of gastric emptying: Example 1, FIG. 2, subcutaneous injection, 20 min after gavage; for effect on gastric emptying (in words): Example 1, dose-response study
Experimental: As described in Example 1, gastric emptying was measured in normal Sprague Dawley rats using the retention of an acaloric methylcellulose gel containing Phenol Red delivered by gavage. Dye content in stomachs removed after sacrifice 20 minutes later was determined spectroscopically, and was compared to that in rats sacrificed immediately after gavage to assess emptying.
This experiment followed a modification of the method of Scarpignato, et al., Arch. Int. Pharmacodyn. Ther. 246:286-94 (1980).
Male Harlan Sprague Dawley (HSD) rats were used. All animals were housed at 22.7±0.8 C in a 12:12 hour light:dark cycle (experiments being performed during the light cycle) and were fed and watered ad libitum (Diet LM-485, Teklad, Madison, Wis.).
The determination of gastric emptying by the method described below was performed after a fast of ˜20 hours to ensure that the stomach contained no chyme that would interfere with spectrophotometric absorbance measurements.
(§1) Conscious rats received by gavage, 1.5 ml of an acaloric gel containing 1.5% methyl cellulose (M-0262, Sigma Chemical Co, St Louis, Mo.) and 0.05% phenol red indicator. Twenty minutes after gavage, rats were anesthetized using 5% halothane, the stomach exposed and clamped at the pyloric and lower esophageal sphincters using artery forceps, removed and opened into an alkaline solution which was made up to a fixed volume. Stomach content was derived from the intensity of the phenol red in the alkaline solution, measured by absorbance at a wavelength of 560 nm. In separate experiments on 7 rats, the stomach and small intestine were both excised and opened into an alkaline solution. The quantity of phenol red that could be recovered from the upper gastrointestinal tract within 20 minutes of gavage was 89±4%; dye which appeared to bind irrecoverably to the gut luminal surface may have accounted for the balance. To account for a maximal dye recovery of less than 100%, percent of stomach contents remaining after 20 min were expressed as a fraction of the gastric contents recovered from control rats sacrificed immediately after gavage in the same experiment. Percent gastric contents remaining =(absorbance at 20 min)/(absorbance at 0 mm)×100.
In baseline studies, with no drug treatment, gastric emptying over 20 min was determined. […]

gastric emptying [2] = assay: Antagonism by exendin[9-39] of gastric emptying inhibition by exendin-4 and GLP-1[7-36]NH2 (Example 3); assay type: in vivo, rats
Experimental: (sc), n=6; and 0.3 mg exendin[9-39] (sc), n=6 on the retention of gastric contents 20 minutes after gavage. Also shown are saline controls at t=0 and t=20 min. The error bars show standard error of the mean. […] Exendin[9-39] (sc) alone had no effect on gastric emptying.
(iv), n=5 on the retention of gastric contents 20 minutes after gavage. Also shown are saline controls at t+0 and t=20 min. The error bars show standard error of the mean.
(iv), n=3 on the retention of gastric contents 20 minutes after gavage. Also shown are saline controls at t=0 and t=20 min. The error bars show standard error of the mean. […] When injected along with GLP-1[7-36]NH2, exendin[9-39]
as §1
In these studies, exendin[9-39] was give both subcutaneously (sc) and intravenously (iv).

gastric emptying [3] = assay: Gastric emptying inhibition by exendin-4 analogs, methods of Example 1 (Example 2); assay type: in vivo, Male HSD rats; conditions: for ED50 of inhibition of gastric emptying: Example 2, FIG. 3; for ED50 of inhibition of gastric emptying / EC50 (inhibition of gastric emptying): 20 min after gavage; for EC50 (inhibition of gastric emptying): Example 2, Table II; for effect on gastric emptying (in words): Example 2, dose-response study
Source text: as §1, with “Twenty” for “Conscious rats received by gavage, 1.5 ml of an acaloric gel containing 1.5% methyl cellulose (M-0262, Sigma Chemical Co, St Louis, Mo.) and 0.05% phenol red indicator. Twenty”, “The quantity of phenol red that could be recovered from the upper gastrointestinal tract within 20 minutes of gavage was 89±4%; dye which appeared to bind irrecoverably to the gut luminal surface may have accounted for the balance.” left out

[4] = system: pentagastrin-induced gastric acid secretion; conditions: reported, Gedulin et al. 1997; cited from earlier work
food intake = conditions: mice, peripheral injection; cited from earlier work

Substance | % remaining (percent of gastric contents remaining 20 minutes after gavage) (gastric emptying [1]; dose 0.010 μg) | % remaining (percent of gastric contents remaining 20 minutes after gavage) (gastric emptying [1]; dose 0.100 μg) | % remaining (percent of gastric contents remaining 20 minutes after gavage) (gastric emptying [1]; dose 0.300 μg) | % remaining (percent of gastric contents remaining 20 minutes after gavage) (gastric emptying [1]; dose 1.000 μg) | % remaining (percent of gastric contents remaining 20 minutes after gavage) (gastric emptying [1]; dose 3.000 μg) | % remaining (percent of gastric contents remaining 20 minutes after gavage) (gastric emptying [1]; dose 10.000 μg) | % remaining (percent of gastric contents remaining 20 minutes after gavage) (gastric emptying [1]; dose 100.000 μg) | ED50 of inhibition of gastric emptying (gastric emptying [3]) [µg] | EC50 (inhibition of gastric emptying) (gastric emptying [3]) [µg] | effect on gastric emptying (in words) (gastric emptying [3]) | ED50 of inhibition of gastric emptying (gastric emptying [1]) | other results
rat amylin (KCNTATCATQRLANFLVRSSNNLGPVLPPTNVGSNTY; ends and bridges not checked; cysteine pairing not given here; UniProt P12969 38-74, looked up) [second positive control for gastric emptying] | 37.60 (2) % | 52.70 (6) % | 58.20 (4) % | 96.80 (9) % | 108.000 (4) % | 101.10 (6) % | 101.20 (2) % |  |  |  |  | 
exendin[9-39] |  |  |  |  |  |  |  |  |  |  |  | effect on gastric emptying (gastric emptying [2]; 0.3 mg exendin[9-39] (sc) alone): no effect; antagonism of the effect of exendin-4 on gastric emptying inhibition (gastric emptying [2]; 0.3 mg exendin[9-39] (sc) plus 1.0 μg exendin-4 (sc), FIG. 4): did not antagonize; antagonism of the effect of exendin-4 on gastric emptying inhibition (gastric emptying [2]; 0.5 mg exendin[9-39] (iv) plus 0.3 μg exendin-4 (sc), FIG. 5): did not antagonize; antagonism of the effect of GLP-1[7-36]NH2 on gastric emptying inhibition (gastric emptying [2]; 0.5 mg exendin[9-39] (iv) plus 10 μg GLP-1[7-36]NH2 (sc), FIG. 7): did not antagonize; antagonism of the effect of GLP-1[7-36]NH2 on gastric emptying inhibition (gastric emptying [2]; 3 mg exendin[9-39] (sc) plus 10 μg GLP-1[7-36]NH2 (sc), FIG. 6): did not antagonize; reversal / block of the effect of exendin-4 on gastric emptying (gastric emptying [2]; exendin[9-39] administered sc or iv, FIGS. 4 and 5): not reversed; also recorded: did not block; block of the effect of GLP-1[7-36]NH2 on gastric emptying (gastric emptying [2]; exendin[9-39] sc or iv, FIGS. 6 and 7): did not block
exendin-4 acid |  |  |  |  |  |  |  | 0.12 | 0.12 | potent inhibitors of gastric emptying; also recorded: dose dependently inhibiting gastric emptying |  | 
exendin-3 | 58.240 (3) % | 70.770 (3) % | 86.420 (3) % | 95.330 (3) % |  | 101.760 (3) % | 103.640 (3) % |  |  |  | ~0.1 µg | effect on gastric emptying (in words) (gastric emptying [1]; listed as exendin 3): dose-dependently inhibited gastric emptying; effect on gastric emptying (in words) (gastric emptying [1]; listed as exendin-3): potent inhibitors of gastric emptying
^14Leu, ^25Phe exendin-4 |  |  |  |  |  |  |  | 0.29 | 0.29 | potent inhibitors of gastric emptying; also recorded: dose dependently inhibiting gastric emptying |  | 
GLP-1[7-36]NH2 [GLP-1 (7-36)NH2] |  | 42.00 (7) % | 29.60 (7) % | 37.20 (9) % | 56.60 (10) % | 87.90 (11) % | 103.60 (7) % |  |  |  | approximately 9 μg | inhibition of pentagastrin-induced gastric acid secretion [4]: inhibitory effect; inhibition of food intake (food intake): not observed; effect on retention of gastric contents 20 minutes after gavage (gastric emptying [2]; 10 μg GLP-1[7-36]NH2 (sc) alone, FIGS. 6 and 7): potently inhibited gastric emptying
